We go through 32 compounds from patent publication US10913727B2, “Modulators of the integrated stress pathway” (Calico Life Sciences LLC, priority 2016, dated 2021).

This assay has as its system HEK293T cells carrying the ATF4 luciferase reporter. In words: ATF4-Luc assay, in vitro model of Vanishing Cell White Matter Disease (VWMD). The assay is classed as cell-based. The settings on record: Homo sapiens, HEK-293T, 1 μg/mL tunicamycin, 7 hours, One Glo luminescence. A digest of the protocol: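 Compound at 200 nM and tunicamycin at 1 μg/mL were given together for 7 h to HEK293T cells stably transduced with an ATF4 5′-UTR-driven firefly luciferase reporter. Read-out by luminescence, reported as EC50.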
Consider `O=C(COc1ccc2c(c1)OC(F)(F)O2)NC12CC(NC(=O)c3cccnc3)(C1)C2` [Compound 457, N-(3-{2-[(2,2-difluoro-2H-1,3-benzodioxol-5-yl)oxy]acetamido}bicyclo[1.1.1]pentan-1-yl)pyridine-3-carboxamide], for which the EC50 – broadly, the concentration at which the effect is half-maximal – fell in the range of 250 to 1000 nM.
For `O=C(COc1ccc(Cl)c(F)c1)NC12CC(NC(=O)c3cccnc3)(C1)C2` [Compound 130, N-{3-[2-(4-chloro-3-fluorophenoxy)acetamido]bicyclo[1.1.1]pentan-1-yl}pyridine-3-carboxamide], the half-maximal effective concentration (EC50) lay in the range of 50 to 250 nM.
With `Cc1nn(C)c(C(=O)NC23CCC(NC(=O)COc4ccc5c(c4)OC(F)(F)O5)(CC2)[C@@H](O)C3)c1F` [Compound 637, N-[(3S)-4-{2-[(2,2-difluoro-2H-1,3-benzodioxol-5-yl)oxy]acetamido}-3-hydroxybicyclo[2.2.2]octan-1-yl]-4-fluoro-1,3-dimethyl-1H-pyrazole-5-carboxamide] the figure was 250 to 1000 nM; with `Cc1cccnc1C(=O)NC12CC(NC(=O)COc3ccc(Cl)c(F)c3)(C1)C2` [Compound 368, N-{3-[2-(4-chloro-3-fluorophenoxy)acetamido]bicyclo[1.1.1]pentan-1-yl}-3-methylpyridine-2-carboxamide], 250 to 1000 nM; with `O=C(COc1ccc(Cl)c(F)c1)NC12CC(NC(=O)c3ccc4ocnc4c3)(C1)C2` [Compound 801, N-{3-[2-(4-chloro-3-fluorophenoxy)acetamido]bicyclo[1.1.1]pentan-1-yl}-1,3-benzoxazole-5-carboxamide], above 2000 nM.
Consider `Cc1ncc(C(=O)NC23CC(NC(=O)COc4ccc(Cl)c(F)c4)(C2)C3)cn1` [Compound 121, N-{3-[2-(4-chloro-3-fluorophenoxy)acetamido]bicyclo[1.1.1]pentan-1-yl}-2-methylpyrimidine-5-carboxamide], for which the EC50 was in the range of 1000 to 2000 nM.
With `O=C(COc1ccc(Cl)c(F)c1)NC12CC(NC(=O)c3ccc(Cn4cncn4)cc3)(C1)C2` [Compound 849, N-{3-[2-(4-chloro-3-fluorophenoxy)acetamido]bicyclo[1.1.1]pentan-1-yl}-4-[(1H-1,2,4-triazol-1-yl)methyl]benzamide] the figure was 1000 to 2000 nM; with `CCc1cc(C(=O)NC23CC(NC(=O)COc4ccc(Cl)c(F)c4)(C2)C3)[nH]n1` [Compound 275, N-{3-[2-(4-chloro-3-fluorophenoxy)acetamido]bicyclo[1.1.1]pentan-1-yl}-3-ethyl-1H-pyrazole-5-carboxamide], 50 to 250 nM; with `O=C(COc1ccc(Cl)c(F)c1)NC12CC(Nc3nc(Cl)cc4nccn34)(C1)C2` [Compound 428, 2-(4-chloro-3-fluorophenoxy)-N-{3-[(7-chloroimidazo[1,2-c]pyrimidin-5-yl)amino]bicyclo[1.1.1]pentan-1-yl}acetamide], 250 to 1000 nM.
With `Cn1cccc1C(=O)NC12CC(NC(=O)COc3ccc(Cl)c(F)c3)(C1)C2` [Compound 821, N-{3-[2-(4-chloro-3-fluorophenoxy)acetamido]bicyclo[1.1.1]pentan-1-yl}-1-methyl-1H-pyrrole-2-carboxamide], the concentration for a half-maximal effect (EC50) was above 2000 nM.
As to `O=C(COc1ccc(Cl)c(Cl)c1)NC12CC(NC(=O)c3cnc(C(F)(F)F)s3)(C1)C2` [Compound 646, N-{3-[2-(3,4-dichlorophenoxy)acetamido]bicyclo[1.1.1]pentan-1-yl}-2-(trifluoromethyl)-1,3-thiazole-5-carboxamide], the EC50 was 50 to 250 nM.
`Cc1cc2c(NC34CC(NC(=O)COc5cccc(OC(F)(F)F)c5)(C3)C4)nccn2n1` [Compound 424, N-{3-[(2-methylpyrazolo[1,5-a]pyrazin-4-yl)amino]bicyclo[1.1.1]pentan-1-yl}-2-[3-(trifluoromethoxy)phenoxy]acetamide]: the EC50 fell in the range of 1000 to 2000 nM.
Turning to `CCc1ccc(C(=O)NC23CC(NC(=O)COc4ccc(Cl)c(F)c4)(C2)C3)o1` [Compound 250, N-{3-[2-(4-chloro-3-fluorophenoxy)acetamido]bicyclo[1.1.1]pentan-1-yl}-5-ethylfuran-2-carboxamide], the EC50 was below 50 nM.
With `O=C(COc1ccc(Cl)c(F)c1)NC12CC(NC(=O)c3cccnc3-n3cccn3)(C1)C2` [Compound 807, N-{3-[2-(4-chloro-3-fluorophenoxy)acetamido]bicyclo[1.1.1]pentan-1-yl}-2-(1H-pyrazol-1-yl)pyridine-3-carboxamide] the figure was above 2000 nM.
On to `O=C(COc1ccc(Cl)c(F)c1)NC12CC(NC(=O)c3ncccc3Cl)(C1)C2` [Compound 899, 3-chloro-N-{3-[2-(4-chloro-3-fluorophenoxy)acetamido]bicyclo[1.1.1]pentan-1-yl}pyridine-2-carboxamide], for which the half-maximal effective concentration (EC50) lay in the range of 250 to 1000 nM.
Take `COc1ccc(C(=O)NC23CC(NC(=O)COc4ccc(Cl)c(F)c4)(C2)C3)cn1` [Compound 154, N-{3-[2-(4-chloro-3-fluorophenoxy)acetamido]bicyclo[1.1.1]pentan-1-yl}-6-methoxypyridine-3-carboxamide]: the half-maximal effective concentration (EC50) fell in the range of 250 to 1000 nM.
`O=C(COc1ccc(Cl)c(F)c1)NC12CC(Nc3cnc(C(F)F)cn3)(C1)C2` [Compound 649, 2-(4-chloro-3-fluorophenoxy)-N-(3-{[5-(difluoromethyl)pyrazin-2-yl]amino}bicyclo[1.1.1]pentan-1-yl)acetamide]: the 50% effective concentration (EC50) was in the range of 1000 to 2000 nM.
With `CN(C)CCOc1ccccc1C(=O)NC12CC(NC(=O)COc3ccc(Cl)c(F)c3)(C1)C2` [Compound 549, N-{3-[2-(4-chloro-3-fluorophenoxy)acetamido]bicyclo[1.1.1]pentan-1-yl}-2-[2-(dimethylamino)ethoxy]benzamide] the figure was above 2000 nM; with `Cn1cc(C(=O)NC23CCC(NC(=O)COc4ccc(Cl)c(F)c4)(CC2)C(O)C3)cn1` (centres unmarked) [Compound 626, N-{4-[2-(4-chloro-3-fluorophenoxy)acetamido]-3-hydroxybicyclo[2.2.2]octan-1-yl}-1-methyl-1H-pyrazole-4-carboxamide], 50 to 250 nM; with `O=C(COc1ccc(Cl)c(F)c1)NC12CC(NC(=O)c3cncc(N4CCOCC4)n3)(C1)C2` [Compound 894, N-{3-[2-(4-chloro-3-fluorophenoxy)acetamido]bicyclo[1.1.1]pentan-1-yl}-6-(morpholin-4-yl)pyrazine-2-carboxamide], 250 to 1000 nM.
With `O=C(COc1ccc(Cl)c(F)c1)NC12CC(NC(=O)c3cnn4c3CCCC4)(C1)C2` [Compound 903, N-{3-[2-(4-chloro-3-fluorophenoxy)acetamido]bicyclo[1.1.1]pentan-1-yl}-4,5,6,7-tetrahydropyrazolo[1,5-a]pyridine-3-carboxamide] the figure was above 2000 nM; with `O=C(COc1ccc(Cl)c(F)c1)NC12CC(NC(=O)c3ccnnc3)(C1)C2` [Compound 762, N-{3-[2-(4-chloro-3-fluorophenoxy)acetamido]bicyclo[1.1.1]pentan-1-yl}pyridazine-4-carboxamide], above 2000 nM.
Regarding `O=C(COc1ccc(Cl)c(F)c1)NC12CCC(NC(=O)c3ccc(C(F)(F)F)nc3)(CC1)C(F)C2` (centres unmarked) [Compound 372, N-{4-[2-(4-chloro-3-fluorophenoxy)acetamido]-2-fluorobicyclo[2.2.2]octan-1-yl}-6-(trifluoromethyl)pyridine-3-carboxamide], the EC50 is 250 to 1000 nM.
With `Cc1ccn2cc(C(=O)NC34CCC(NC(=O)COc5ccc(Cl)c(F)c5)(CC3)C(O)C4)nc2c1` (centres unmarked) [Compound 598, N-{4-[2-(4-chloro-3-fluorophenoxy)acetamido]-3-hydroxybicyclo[2.2.2]octan-1-yl}-7-methylimidazo[1,2-a]pyridine-2-carboxamide] the figure was 50 to 250 nM.
With `Cc1nc(C(=O)NC23CCC(NC(=O)COc4ccc(Cl)c(F)c4)(CC2)C(O)C3)ccc1C#N` (centres unmarked) [Compound 916, N-{4-[2-(4-chloro-3-fluorophenoxy)acetamido]-3-hydroxybicyclo[2.2.2]octan-1-yl}-5-cyano-6-methylpyridine-2-carboxamide] the figure was 50 to 250 nM.
With `CCc1noc(C(=O)NC23CC(NC(=O)COc4ccc(Cl)c(F)c4)(C2)C3)n1` [Compound 479, N-{3-[2-(4-chloro-3-fluorophenoxy)acetamido]bicyclo[1.1.1]pentan-1-yl}-3-ethyl-1,2,4-oxadiazole-5-carboxamide] the figure was 50 to 250 nM.
Regarding `CC(C)(O)c1cccc(C(=O)NC23CC(NC(=O)COc4ccc(Cl)c(F)c4)(C2)C3)c1` [Compound 386, N-{3-[2-(4-chloro-3-fluorophenoxy)acetamido]bicyclo[1.1.1]pentan-1-yl}-3-(2-hydroxypropan-2-yl)benzamide], the concentration giving a half-maximal response (EC50) is above 2000 nM.
With `O=C(COc1ccc(Cl)c(Cl)c1)NC12CC(NC(=O)c3cnc4ccccc4n3)(C1)C2` [Compound 920, N-{3-[2-(3,4-dichlorophenoxy)acetamido]bicyclo[1.1.1]pentan-1-yl}quinoxaline-2-carboxamide], the EC50 was below 50 nM.
Consider `COc1ccc(F)cc1C(=O)NC12CC(NC(=O)COc3ccc(Cl)c(F)c3)(C1)C2` [Compound 540, N-{3-[2-(4-chloro-3-fluorophenoxy)acetamido]bicyclo[1.1.1]pentan-1-yl}-5-fluoro-2-methoxybenzamide], for which the EC50 is 250 to 1000 nM.
For the compound `O=C(COc1ccc2c(c1)OC(F)(F)O2)NC12CC(NC(=O)c3ccc(C(=O)O)cc3)(C1)C2` [Compound 128, 4-[(3-{2-[(2,2-difluoro-2H-1,3-benzodioxol-5-yl)oxy]acetamido}bicyclo[1.1.1]-pentan-1-yl)carbamoyl]benzoic acid], the EC50 was above 2000 nM.
With `O=C(COc1ccc(Cl)c(F)c1)NC12CC(NC(=O)c3ccsc3)(C1)C2` [Compound 306, N-{3-[2-(4-chloro-3-fluorophenoxy)acetamido]bicyclo[1.1.1]pentan-1-yl}thiophene-3-carboxamide] the figure was 250 to 1000 nM; with `O=C(COc1ccc(Cl)c(F)c1)NC12CC(NC(=O)c3nc(C4CC4)cs3)(C1)C2` [Compound 590, N-{3-[2-(4-chloro-3-fluorophenoxy)acetamido]bicyclo[1.1.1]pentan-1-yl}-4-cyclopropyl-1,3-thiazole-2-carboxamide], 50 to 250 nM.
